For assay [1], the target named is T1, HsNMT1 (Homo sapiens, UniProt P30419).
T1 construct: made in house
T1 sequence (P30419 1-496): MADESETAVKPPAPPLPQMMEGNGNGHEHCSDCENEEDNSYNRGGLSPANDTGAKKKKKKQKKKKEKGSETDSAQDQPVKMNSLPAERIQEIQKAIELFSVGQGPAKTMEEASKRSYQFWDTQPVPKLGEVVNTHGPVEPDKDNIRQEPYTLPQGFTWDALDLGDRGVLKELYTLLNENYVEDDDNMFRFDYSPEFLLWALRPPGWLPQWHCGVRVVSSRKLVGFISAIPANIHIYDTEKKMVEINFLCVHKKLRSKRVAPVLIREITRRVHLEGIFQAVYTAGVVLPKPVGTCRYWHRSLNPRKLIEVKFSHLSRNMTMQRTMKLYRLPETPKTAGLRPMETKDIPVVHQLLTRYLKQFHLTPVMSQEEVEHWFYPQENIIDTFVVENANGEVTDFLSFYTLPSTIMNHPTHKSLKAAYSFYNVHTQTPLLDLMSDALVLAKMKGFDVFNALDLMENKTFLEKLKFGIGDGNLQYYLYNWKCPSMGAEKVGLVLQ
The experiment in a line: Human NMT1 scintillation proximity dose-response assay. In kind it is biochemical. To be noted: Table 2; single determination; read-out: Hs1 IC50. (In general: In a scintillation proximity assay essentially only radioactivity close to the scintillant gives light.)

Assay [2] deals with L. donovani NMT (Leishmania donovani, UniProt D0AB09). The experiment in a line: biochemical. To be noted: for Ldon LE: ligand efficiency calculated from Ldon NMT IC50. Here is the method: Recombinant P. falciparum (Swiss-Prot Q81LW6) and L. donovani NMTs (EMBL accession number FN555136) were produced at the University of York, using established protocols. An assay format based on scintillation proximity technology to monitor enzyme activity was used as previously described, [30].
L. donovani NMT, sequence (D0AB09 entry or part of it): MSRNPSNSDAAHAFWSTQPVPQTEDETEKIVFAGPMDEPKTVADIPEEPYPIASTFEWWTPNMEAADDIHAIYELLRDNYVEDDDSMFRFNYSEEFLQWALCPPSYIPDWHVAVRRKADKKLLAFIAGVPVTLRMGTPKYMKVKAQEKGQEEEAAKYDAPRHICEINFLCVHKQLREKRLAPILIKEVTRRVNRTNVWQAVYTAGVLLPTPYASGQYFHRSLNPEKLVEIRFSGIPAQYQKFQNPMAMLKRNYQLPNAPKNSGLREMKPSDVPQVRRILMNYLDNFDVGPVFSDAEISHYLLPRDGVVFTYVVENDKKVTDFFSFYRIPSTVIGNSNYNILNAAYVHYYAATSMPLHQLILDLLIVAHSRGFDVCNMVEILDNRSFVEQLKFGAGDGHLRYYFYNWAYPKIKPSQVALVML
The Pfizer Global Diverse Representative Set consisting of 150,000 compounds was screened at 20 µM final assay concentration. Assay plates were prepared by dispensing 0.1 µL of compound dissolved in DMSO using the Vario system (Cybio) into white 384-well plates (Greiner Bio-One).
(§1) The reaction was initiated by adding 10 µL of the substrate mixture to each well containing the pre-incubated enzyme/compound mixture, and allowed to proceed at RT for 80 min. The reaction was quenched by the addition 20 µl of stop solution to each well. Stop solution consisted of 0.75 M MgCl2 (Sigma), 0.1 M phosphoric acid (Sigma) and 1 mg/ml of streptavidin-coated polystyrene SPA beads (Perkin-Elmer). Plates were sealed using topseals (Perkin-Elmer) and left overnight to allow the bead solution to settle. Radioactive counts were measured with an integration time of 300 sec per plate using the Leadseeker Generation 4 plate reader (GE Healthcare). Each plate included a positive control of 1 µM final assay concentration of DDD85646 [22] and 1% DMSO as a negative control. […] The data were analysed using Pfizer SIGHTS software and visualised using Spotfire software (TIBCO).

The target in assay [3] is T2, HsNMT2 (Homo sapiens, UniProt O60551).
T2 construct: made in house
T2 sequence (O60551 1-498): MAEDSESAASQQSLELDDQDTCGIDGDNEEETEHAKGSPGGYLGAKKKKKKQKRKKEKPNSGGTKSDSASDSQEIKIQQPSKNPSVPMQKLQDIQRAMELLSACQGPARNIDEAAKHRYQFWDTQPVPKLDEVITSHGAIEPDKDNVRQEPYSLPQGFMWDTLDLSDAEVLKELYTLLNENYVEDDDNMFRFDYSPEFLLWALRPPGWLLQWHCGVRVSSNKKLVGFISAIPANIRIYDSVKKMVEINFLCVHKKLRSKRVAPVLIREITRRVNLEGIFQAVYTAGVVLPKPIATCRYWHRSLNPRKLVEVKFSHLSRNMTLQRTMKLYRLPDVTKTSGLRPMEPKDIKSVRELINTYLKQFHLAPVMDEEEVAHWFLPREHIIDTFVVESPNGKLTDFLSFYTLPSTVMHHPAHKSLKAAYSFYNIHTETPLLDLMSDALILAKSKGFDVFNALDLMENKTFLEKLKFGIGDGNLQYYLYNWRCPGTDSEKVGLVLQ
The experiment in a line: Human NMT2 scintillation proximity dose-response assay. The class given is biochemical. To be noted: Table 2; single determination; read-out: Hs2 IC50.

Assay [4] deals with T3, P. falciparum NMT (Plasmodium falciparum, UniProt Q8ILW6).
T3 construct: made in house
T3 sequence (Q8ILW6 1-410): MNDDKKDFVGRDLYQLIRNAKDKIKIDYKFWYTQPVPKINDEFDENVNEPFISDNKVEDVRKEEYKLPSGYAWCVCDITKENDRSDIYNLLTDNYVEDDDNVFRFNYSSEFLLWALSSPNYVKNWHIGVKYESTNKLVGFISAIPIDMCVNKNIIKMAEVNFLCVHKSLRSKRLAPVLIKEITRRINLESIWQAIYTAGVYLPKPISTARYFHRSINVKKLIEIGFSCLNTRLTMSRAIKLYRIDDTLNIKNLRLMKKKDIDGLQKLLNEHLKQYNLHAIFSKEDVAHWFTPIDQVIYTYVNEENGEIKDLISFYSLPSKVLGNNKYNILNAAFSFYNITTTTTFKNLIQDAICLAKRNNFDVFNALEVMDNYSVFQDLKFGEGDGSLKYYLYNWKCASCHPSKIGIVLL
Nature of the assay: biochemical. To be noted: for Pfal LE: ligand efficiency calculated from Pfal NMT IC50; for Pfal/Ldon Sel: selectivity for Pfal NMT over Ldon NMT derived from IC50 values. Here is the method: Recombinant P. falciparum (Swiss-Prot Q81LW6) and L. donovani NMTs (EMBL accession number FN555136) were produced at the University of York, using established protocols. An assay format based on scintillation proximity technology to monitor enzyme activity was used as previously described, [30]. […]
as §1

In assay [5] the target is T4, T brucei NMT (Trypanosoma brucei brucei, UniProt Q388H8).
T4 construct: made in house
T4 sequence (Q388H8 1-446): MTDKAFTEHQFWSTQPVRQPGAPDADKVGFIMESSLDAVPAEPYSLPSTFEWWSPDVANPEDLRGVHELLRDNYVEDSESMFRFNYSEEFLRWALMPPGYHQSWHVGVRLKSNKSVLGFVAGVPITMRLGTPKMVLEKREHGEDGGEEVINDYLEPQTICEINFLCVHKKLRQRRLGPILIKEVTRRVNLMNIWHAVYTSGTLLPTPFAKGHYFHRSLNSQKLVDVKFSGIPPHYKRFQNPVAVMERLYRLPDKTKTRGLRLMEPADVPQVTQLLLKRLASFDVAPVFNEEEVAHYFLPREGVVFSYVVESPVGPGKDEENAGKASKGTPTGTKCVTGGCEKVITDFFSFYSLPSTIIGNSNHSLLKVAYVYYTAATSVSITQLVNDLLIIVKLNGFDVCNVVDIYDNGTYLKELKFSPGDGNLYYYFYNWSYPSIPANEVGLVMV
The experiment in a line: T. brucei NMT scintillation proximity dose-response assay. The class given is biochemical.

Where [6] appears, read: Table 1, mean of 3 separate experiments, top concentration 80 µM, read-out: Ldon IC50.
The mark [7] stands for this setting: Table 2, mean of 3 determinations, read-out: Ldon IC50.
[8] abbreviates: Table 1, mean of 3 separate experiments, top concentration 80 µM, read-out: Pfal IC50.
Setting [9] is: Table 2, mean of 3 determinations, read-out: Pfal IC50.
The mark [10] stands for this setting: Table 2, single determination, read-out: Tb IC50.
The mark [11] stands for this setting: Ldon IC50, Table 1, mean of 3 separate experiments, top concentration 80 µM.
The mark [12] stands for this setting: Ldon IC50, Table 2, mean of 3 determinations.

The values that follow come from PMC3335879, “Selective Inhibitors of Protozoan Protein N-myristoyltransferases as Starting Points for Tropical Disease Medicinal Chemistry Programs” (PLoS Neglected Tropical Diseases, 2012).

Read-outs that look alike come from different tables or passages of the source.

As a reminder, the IC50 is the concentration that inhibits the measured activity by half.

Turning to `NC(CC(=O)N1CC(CO)C(c2ccc(Cl)cc2)C1)Cc1ccc(Cl)cc1` (centres unmarked) [PF-03402623], the IC50 in assay [1] came to 5.2 µM; in assay [2] (setting [6]) it was 93 nM; in assay [2] (setting [7]), 93 nM; in assay [3] it was 14.7 µM; in assay [4] (setting [8]), 71900 nM; in assay [4] (setting [9]), 71900 nM. In addition, the IC50 in assay [5] (setting [10]) amounted to 1.5 µM. For the same compound, in assay [2], the “Ldon LE” value is 0.35.
As to `Cc1cc2nc(N(C)C3CCN(C)CC3)nc(N(C)CCC#N)c2s1` [PF-00349412], the half-inhibitory concentration (IC50) was 9 µM in assay [1]; 482 nM in assay [2] (setting [11]); 480 nM in assay [2] (setting [12]); 11.5 µM in assay [3]; 39600 nM in assay [4]; 56.2 µM in assay [5]. Also, in assay [2], the “Ldon LE” value is 0.34.
With `Cn1c(CN2CCC(c3cc(F)cc(F)c3)CC2)nc2cc(Cl)ccc21` [PF-03665853], the IC50 in assay [1] is 0.51 µM; in assay [2] (setting [11]) it was above 80000 nM; in assay [2] (setting [12]) it was above 80000 nM; in assay [3], 0.56 µM; in assay [4] (setting [8]), 910 nM; in assay [4] (setting [9]), 910 nM. Further, the IC50 in assay [5] (setting [10]) was 35.4 µM. For the same compound, the “Pfal LE” value in assay [4] is 0.32. The “Pfal/Ldon Sel” value in assay [4] is reported as above 88.
With `c1cncc(CCNCc2cccc(-c3cccc(CN4CCc5ncsc5C4)c3)c2)c1` [PF-00075634], the IC50 was 36.1 µM in assay [1]; 158 nM in assay [2] (setting [6]); 160 nM in assay [2] (setting [7]); 26.7 µM in assay [3]; above 80000 nM in assay [4] (setting [8]); above 80000 nM in assay [4] (setting [9]). Besides, in assay [5] (setting [10]), the IC50 was above 80 µM. Also, in assay [2], the “Ldon LE” value is given as 0.29.
Turning to `Cc1cnc(CNC(=O)C2CN(c3nc(NCCN(C)C)ncc3Cl)C2)cn1` [PF-03531814], the IC50 amounted to 70 µM in assay [1]; 72000 nM in assay [2] (setting [6]); 72000 nM in assay [2] (setting [7]); 76 µM in assay [3]; 482 nM in assay [4] (setting [8]); 480 nM in assay [4] (setting [9]). Moreover, the IC50 in assay [5] (setting [10]) was above 80 µM. For the same compound, in assay [4], the “Pfal LE” value is listed as 0.31. The “Pfal/Ldon Sel” value in assay [4] was determined as 150.
Consider `CNCC(=O)N1CC[C@@H](NC(=O)c2ccccc2C(F)(F)F)C1` [CP-854190], for which the IC50 in assay [1] came to 0.57 µM; in assay [2] (setting [6]) it was 38700 nM; in assay [2] (setting [7]), 38700 nM; in assay [3], 1.59 µM; in assay [4] (setting [8]) it was 1720 nM; in assay [4] (setting [9]), 1720 nM. The concentration for half-maximal inhibition (IC50) in assay [5] (setting [10]) was above 80 µM. For the same compound, the “Pfal LE” value in assay [4] is 0.34. For the same compound, in assay [4], the “Pfal/Ldon Sel” value was 22.5.
